Assay results: patent US10065970B2 (Genentech, Inc., priority 2015, dated 2018)

What follows are compounds tested against PI3Kα (alpha) (Homo sapiens (Human), UniProt P42336) (assay: p110α (alpha) PI3K Binding Assay (ADP-Glo lipid kinase reaction)). Details: PI3K alpha 0.2 nM, ATP 40 μM, PIP2:3PS 50 μM, 120 min, room temperature; Ki by Morrison Equation; read-out: PI3Kα-(alpha) ATP (Ki) micromolar.
Assay type: biochemical
Procedure, shortened: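 Enzyme with PIP2:3PS lipid substrate and ATP/MgCl2 in 50 mM HEPES, 50 mM NaCl, 3 mM MgCl2, 0.01% BSA, 1% DMSO, 120 min at room temperature. ADP formed detected by ADP-Glo luminescence. Ki from 10-point dose-response curves via the Morrison equation.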

PI3Kα (alpha), sequence (P42336 whole entry): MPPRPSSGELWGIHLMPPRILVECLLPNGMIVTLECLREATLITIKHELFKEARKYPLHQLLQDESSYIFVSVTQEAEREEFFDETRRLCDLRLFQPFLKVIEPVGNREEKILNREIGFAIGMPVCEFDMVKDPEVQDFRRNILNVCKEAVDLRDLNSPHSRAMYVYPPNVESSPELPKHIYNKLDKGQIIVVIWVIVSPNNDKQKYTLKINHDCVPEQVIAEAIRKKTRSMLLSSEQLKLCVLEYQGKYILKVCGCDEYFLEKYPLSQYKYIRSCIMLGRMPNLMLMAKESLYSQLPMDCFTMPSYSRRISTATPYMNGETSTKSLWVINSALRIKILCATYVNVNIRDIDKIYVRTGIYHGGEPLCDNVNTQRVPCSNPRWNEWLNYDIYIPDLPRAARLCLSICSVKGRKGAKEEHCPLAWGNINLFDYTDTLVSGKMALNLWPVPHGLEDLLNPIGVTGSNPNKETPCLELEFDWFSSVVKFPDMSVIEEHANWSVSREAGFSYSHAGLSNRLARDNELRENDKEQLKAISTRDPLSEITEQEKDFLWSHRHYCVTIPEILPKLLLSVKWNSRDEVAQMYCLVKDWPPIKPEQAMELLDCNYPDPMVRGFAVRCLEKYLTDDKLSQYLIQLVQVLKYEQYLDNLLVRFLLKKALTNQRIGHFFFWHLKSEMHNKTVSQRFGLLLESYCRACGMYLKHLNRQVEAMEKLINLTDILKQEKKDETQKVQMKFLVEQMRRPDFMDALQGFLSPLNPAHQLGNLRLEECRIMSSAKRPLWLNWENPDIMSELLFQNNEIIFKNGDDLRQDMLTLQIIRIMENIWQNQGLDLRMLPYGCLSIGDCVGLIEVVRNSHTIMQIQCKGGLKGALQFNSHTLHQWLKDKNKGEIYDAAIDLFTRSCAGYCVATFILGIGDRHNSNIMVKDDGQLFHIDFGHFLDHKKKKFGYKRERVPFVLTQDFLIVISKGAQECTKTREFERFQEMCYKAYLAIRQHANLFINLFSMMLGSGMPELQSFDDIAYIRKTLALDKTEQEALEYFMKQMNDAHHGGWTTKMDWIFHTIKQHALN
PI3Kα (alpha), sequence (P27986 whole entry partner): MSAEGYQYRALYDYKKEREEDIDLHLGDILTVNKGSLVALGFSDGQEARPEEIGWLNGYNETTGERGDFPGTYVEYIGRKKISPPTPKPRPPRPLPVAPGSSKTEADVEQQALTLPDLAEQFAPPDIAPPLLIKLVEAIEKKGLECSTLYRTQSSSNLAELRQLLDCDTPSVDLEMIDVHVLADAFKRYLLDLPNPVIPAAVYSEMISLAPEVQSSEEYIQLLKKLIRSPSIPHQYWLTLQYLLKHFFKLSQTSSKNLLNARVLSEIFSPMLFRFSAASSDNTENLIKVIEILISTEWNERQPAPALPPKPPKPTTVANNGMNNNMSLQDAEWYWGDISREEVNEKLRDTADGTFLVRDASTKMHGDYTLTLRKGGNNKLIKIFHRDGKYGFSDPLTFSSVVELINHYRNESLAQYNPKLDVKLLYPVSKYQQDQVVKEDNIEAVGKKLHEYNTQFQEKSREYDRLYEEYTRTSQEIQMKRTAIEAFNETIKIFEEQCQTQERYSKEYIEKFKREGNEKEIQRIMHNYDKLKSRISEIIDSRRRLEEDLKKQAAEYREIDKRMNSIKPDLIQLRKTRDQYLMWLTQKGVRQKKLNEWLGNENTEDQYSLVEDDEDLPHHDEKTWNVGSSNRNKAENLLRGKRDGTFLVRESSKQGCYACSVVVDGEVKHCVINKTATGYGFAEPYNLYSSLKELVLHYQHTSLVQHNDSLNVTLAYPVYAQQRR

Row | SMILES | Ki
1 | NC(=O)[C@@H](Nc1cc2c3c(c1)nc(-c1ccc4nc(N)sc4c1)n3CCCCO2)C1CC1 [Example 214, (S)-2-((1-(2-Aminobenzo[d]thiazol-6-yl)-7,8,9,10-tetrahydro-6-oxa-2,10a-diazacycloocta[cd]inden-4-yl)amino)-2-cyclopropylacetamide] | < 0.02 nM
2 | NC(=O)[C@@H](Nc1cc2c3c(c1)nc(-c1cc(F)c4nccnc4c1)n3CCCO2)C1CC1 [Example 215, (S)-2-Cyclopropyl-2-((1-(8-fluoroquinoxalin-6-yl)-8,9-dihydro-7H-6-oxa-2,9a-diazabenzo[cd]azulen-4-yl)amino)acetamide] | 0.424 nM
3 | CC[C@H](C(N)=O)n1cc(-c2cc3c4c(c2)nc(-c2ccc5oc(N)nc5c2)n4CCCO3)cn1 [Example 216, (R)-2-(4-(1-(2-Aminobenzo[d]oxazol-5-yl)-8,9-dihydro-7H-6-oxa-2,9a-diazabenzo[cd]azulen-4-yl)-1H-pyrazol-1-yl)butanamide] | 0.214 nM
4 | CC[C@@H](C(N)=O)n1cc(-c2cc3c4c(c2)nc(-c2ccc5oc(N)nc5c2)n4CCCO3)cn1 [Example 217, (S)-2-(4-(1-(2-Aminobenzo[d]oxazol-5-yl)-8,9-dihydro-7H-6-oxa-2,9a-diazabenzo[cd]azulen-4-yl)-1H-pyrazol-1-yl)butanamide] | 0.298 nM
5 | C[C@H](C(N)=O)n1cc(-c2cc3c4c(c2)nc(-c2ccc5oc(N)nc5c2)n4CCCO3)cn1 [Example 218, (R)-2-(4-(1-(2-Aminobenzo[d]oxazol-5-yl)-8,9-dihydro-7H-6-oxa-2,9a-diazabenzo[cd]azulen-4-yl)-1H-pyrazol-1-yl)propanamide] | 0.143 nM
6 | C[C@@H](C(N)=O)n1cc(-c2cc3c4c(c2)nc(-c2ccc5oc(N)nc5c2)n4CCCO3)cn1 [Example 219, (S)-2-(4-(1-(2-Aminobenzo[d]oxazol-5-yl)-8,9-dihydro-7H-6-oxa-2,9a-diazabenzo[cd]azulen-4-yl)-1H-pyrazol-1-yl)propanamide] | 0.242 nM
7 | NC(=O)[C@@H]1CCCN1c1cc2c3c(c1)nc(-c1ccc4c(c1)N1CCC(=O)N=C1O4)n3CCCO2 [Example 220, (S)-1-(1-(2-Oxo-3,4-dihydro-2H-benzo[4,5]oxazolo[3,2-a]pyrimidin-7-yl)-8,9-dihydro-7H-6-oxa-2,9a-diazabenzo[cd]azulen-4-yl)pyrrolidine-2-carboxamide] | 2.92 nM
8 | NC(=O)[C@@H]1CCCN1c1cc2c3c(c1)nc(-c1ccc(-c4nc[nH]n4)cc1)n3CCCO2 [Example 221, (S)-1-(1-(4-(1H-1,2,4-Triazol-3-yl)phenyl)-8,9-dihydro-7H-6-oxa-2,9a-diazabenzo[cd]azulen-4-yl)pyrrolidine-2-carboxamide] | 0.237 nM
9 | NC(=O)[C@@H]1CCCN1c1cc2c3c(c1)nc(-c1ccc(-c4nc[nH]n4)c(Cl)c1)n3CCCO2 [Example 222, (S)-1-(1-(3-Chloro-4-(1H-1,2,4-triazol-3-yl)phenyl)-8,9-dihydro-7H-6-oxa-2,9a-diazabenzo[cd]azulen-4-yl)pyrrolidine-2-carb oxamide] | 0.261 nM
10 | NC(=O)[C@@H]1CCCN1c1cc2c3c(c1)nc(-c1ccc(-c4cn[nH]c4)nc1)n3CCCO2 [Example 223, (S)-1-(1-(6-(1H-Pyrazol-4-yl)pyridin-3-yl)-8,9-dihydro-7H-6-oxa-2,9a-diazabenzo[cd]azulen-4-yl)pyrrolidine-2-carboxamide] | 74.6 nM
11 | CCc1cc(-c2nc3cc(N4CCC[C@H]4C(N)=O)cc4c3n2CCCO4)cc2nc(N)oc12 [Example 224, (S)-1-(1-(2-Amino-7-ethylbenzo[d]oxazol-5-yl)-8,9-dihydro-7H-6-oxa-2,9a-diazabenzo[cd]azulen-4-yl)pyrrolidine-2-carb oxamide] | 1.62 nM
12 | CCc1cc(-c2nc3cc(N[C@H](C(N)=O)C4CC4)cc4c3n2CCCO4)cc2nc(N)oc12 [Example 225, (S)-2-((1-(2-Amino-7-ethylbenzo[d]oxazol-5-yl)-8,9-dihydro-7H-6-oxa-2,9a-diazabenzo[cd]azulen-4-yl)amino)-2-cyclopropylacetamide] | 0.431 nM
13 | NC(=O)[C@@H]1CCCN1c1cc2c3c(c1)nc(-c1ccc(-c4nc[nH]n4)cn1)n3CCCO2 [Example 226, (S)-1-(1-(5-(1H-1,2,4-Triazol-3-yl)pyridin-2-yl)-8,9-dihydro-7H-6-oxa-2,9a-diazabenzo[cd]azulen-4-yl)pyrrolidine-2-carb oxamide] | 0.393 nM
14 | NC(=O)[C@@H]1CCCN1c1cc2c3c(c1)nc(-c1ccc(-c4ncsn4)cc1)n3CCCO2 [Example 227, (S)-1-(1-(4-(1,2,4-Thiadiazol-3-yl)phenyl)-8,9-dihydro-7H-6-oxa-2,9a-diazabenzo[cd]azulen-4-yl)pyrrolidine-2-carboxamide] | 8.21 nM
15 | NC(=O)[C@@H](Nc1cc2c3c(c1)nc(-c1ccn4nccc4n1)n3CCCO2)C1CC1 [Example 228, (S)-2-Cyclopropyl-2-((1-(pyrazolo[1,5-a]pyrimidin-5-yl)-8,9-dihydro-7H-6-oxa-2,9a-diazabenzo[cd]azulen-4-yl)amino)acetamide] | 2.66 nM
16 | NC(=O)[C@@H]1CCCN1c1cc2c3c(c1)nc(-c1ccc(-c4cc[nH]n4)cc1)n3CCCO2 [Example 229, (S)-1-(1-(4-(1H-Pyrazol-3-yl)phenyl)-8,9-dihydro-7H-6-oxa-2,9a-diazabenzo[cd]azulen-4-yl)pyrrolidine-2-carboxamide] | 6.88 nM
17 | NC(=O)[C@@H]1CCCN1c1cc2c3c(c1)nc(-c1ccc(N4CCNC4=O)cc1)n3CCCO2 [Example 234, (S)-1-(1-(4-(2-Oxoimidazolidin-1-yl)phenyl)-8,9-dihydro-7H-6-oxa-2,9a-diazabenzo[cd]azulen-4-yl)pyrrolidine-2-carboxamide] | 83.7 nM
18 | NC(=O)[C@@H](Nc1cc2c3c(c1)nc(-c1cc(C(F)(F)F)c4oc(N)nc4c1)n3CCCO2)C1CC1 [Example 235, (S)-2-((1-(2-Amino-7-(trifluoromethyl)benzo[d]oxazol-5-yl)-8,9-dihydro-7H-6-oxa-2,9a-diazabenzo[cd]azulen-4-yl)amino)-2-cyclopropylacetamide] | 0.209 nM
19 | COc1ccc(CNC(=O)[C@@H]2CCCN2c2cc3c4c(c2)nc(-c2ccc5oc(N)nc5c2)n4CCCO3)cc1 [Example 236, (S)-1-(1-(2-Aminobenzo[d]oxazol-5-yl)-8,9-dihydro-7H-6-oxa-2,9a-diazabenzo[cd]azulen-4-yl)-N-(4-methoxybenzyl)pyrrolidine-2-carb oxamide] | 21 nM
20 | NC(=O)[C@@H]1CCCN1c1cc2c3c(c1)nc(-c1ccc4c(=O)[nH]oc4c1)n3CCCO2 [Example 237, (S)-1-(1-(3-Oxo-2,3-dihydrobenzo[d]isoxazol-6-yl)-8,9-dihydro-7H-6-oxa-2,9a-diazabenzo[cd]azulen-4-yl)pyrrolidine-2-carb oxamide] | 137 nM
21 | C[C@@H]1Cn2c(-c3ccc4oc(N)nc4c3)nc3cc(N[C@H](C(N)=O)C4CC4)cc(c32)O1 [Example 238, (S)-2-(((R)-2-(2-Aminobenzo[d]oxazol-5-yl)-4-methyl-3,4-dihydro-5-oxa-1,2a-diazaacenaphthylen-7-yl)amino)-2-cyclopropylacetamide] | 0.045 nM
22 | C[C@H](Oc1cc2c3c(nc(-c4ccc5oc(N)nc5c4)n3CCCO2)c1F)C(N)=O [Example 240, (S)-2-((1-(2-Aminobenzo[d]oxazol-5-yl)-3-fluoro-8,9-dihydro-7H-6-oxa-2,9a-diazabenzo[cd]azulen-4-yl)oxy)propanamide] | 1.61 nM
23 | C[C@H](Oc1cc2c3c(c1)nc(-c1ccc4oc(N)nc4c1F)n3CCCCO2)C(N)=O [Example 241, (S)-2-((1-(2-Amino-4-fluorobenzo[d]oxazol-5-yl)-7,8,9,10-tetrahydro-6-oxa-2,10a-diazacycloocta[cd]inden-4-yl)oxy)propanamide] | < 0.02 nM
24 | C[C@H](Oc1cc2c3c(c1)nc(-c1cc(F)c4nc(N)sc4c1)n3CCCCO2)C(N)=O [Example 242, (S)-2-((1-(2-Amino-4-fluorobenzo[d]thiazol-6-yl)-7,8,9,10-tetrahydro-6-oxa-2,10a-diazacycloocta[cd]inden-4-yl)oxy)propanamide] | < 0.02 nM
25 | C[C@H](Oc1cc2c3c(c1)nc(-c1ccc(-c4nc[nH]n4)cc1)n3CCCCO2)C(N)=O [Example 243, (S)-2-((1-(4-(1H-1,2,4-Triazol-3-yl)phenyl)-7,8,9,10-tetrahydro-6-oxa-2,10a-diazacycloocta[cd]inden-4-yl)oxy)propanamide] | < 0.02 nM
26 | C[C@H](Oc1cc2c3c(c1)nc(-c1ccc4nc(N)cnc4c1)n3CCCCO2)C(N)=O [Example 244, (S)-2-((1-(2-Aminoquinoxalin-6-yl)-7,8,9,10-tetrahydro-6-oxa-2,10a-diazacycloocta[cd]inden-4-yl)oxy)propanamide] | < 0.02 nM
27 | C[C@@H](Oc1cc2c3c(c1)nc(-c1ccc4oc(N)nc4c1)n3CCCCO2)C(N)=O [Example 245, (R)-2-((1-(2-Aminobenzo[d]oxazol-5-yl)-7,8,9,10-tetrahydro-6-oxa-2,10a-diazacycloocta[cd]inden-4-yl)oxy)propanamide] | 0.032 nM
28 | NC(=O)[C@@H](Nc1cc2c3c(c1)nc(-c1ccc4sc(N)nc4c1)n3CCCCO2)C1CC1 [Example 246, (S)-2-((1-(2-Aminobenzo[d]thiazol-5-yl)-7,8,9,10-tetrahydro-6-oxa-2,10a-diazacycloocta[cd]inden-4-yl)amino)-2-cyclopropylacetamide] | < 0.02 nM
29 | C[C@H](Oc1cc2c3c(c1)nc(-c1ccc4nc(N)sc4c1)n3CCCCO2)C(N)=O [Example 248, (S)-2-((1-(2-Aminobenzo[d]thiazol-6-yl)-7,8,9,10-tetrahydro-6-oxa-2,10a-diazacycloocta[cd]inden-4-yl)oxy)propanamide] | 0.03 nM

Same assay, conditions: read-out: PI3Kα-(alpha) ATP (Ki) micromolar

Row | SMILES | Ki
30 | NC(=O)[C@@H]1CCCN1c1cc2c3c(nc(-c4ccc5oc(N)nc5c4)n3CCCCO2)c1F [Example 247, (S)-1-(1-(2-Aminobenzo[d]oxazol-5-yl)-3-fluoro-7,8,9,10-tetrahydro-6-oxa-2,10a-diazacycloocta[cd]inden-4-yl)pyrrolidine-2-carboxamide] | 0.024 nM
